± gives the expanded uncertainty stated by the source.
Conditions: Liquid, Closed cell (Static) method

SMILES | vapor or sublimation pressure (268.13 K) [kPa] | vapor or sublimation pressure (278.13 K) [kPa] | vapor or sublimation pressure (288.15 K) [kPa] | vapor or sublimation pressure (298.17 K) [kPa] | vapor or sublimation pressure (308.2 K) [kPa] | vapor or sublimation pressure (318.21 K) [kPa] | vapor or sublimation pressure (278.14 K) [kPa] | vapor or sublimation pressure (288.14 K) [kPa] | vapor or sublimation pressure (298.14 K) [kPa] | vapor or sublimation pressure (308.19 K) [kPa] | vapor or sublimation pressure (318.22 K) [kPa]
FC(F)(F)C1(F)OC1(F)F (configuration not stated) [2,2,3-trifluoro-3-(trifluoromethyl)oxirane] | 258.47 ± 1.6 | 365.66 ± 1.8 | 503.71 ± 2.1 | 678.24 ± 2.5 | 894.42 ± 3 | 1160.2 ± 3.4 | – | – | – | – | –
FC(F)=C(F)C(F)(F)F [hexafluoropropene] | 278.57 ± 1.7 | – | – | – | – | – | 394.08 ± 1.9 | 542.58 ± 2.2 | 729.82 ± 2.6 | 963.24 ± 3.2 | 1251.2 ± 3.6

Source: the NIST ThermoML archive (doi:10.1021/je5006938)
